The values that follow come from patent publication EP3072511A1, “The medical use of 3-aryl substituted 1-indanones” (Centrum Badan Molekularnych I Makromolekularnych Polskiej …, priority 2013, dated 2016).

For experiment [1], the system named is cell line HeLa (cervix carcinoma, human). As to the kind of experiment: MTT cytotoxicity test, HeLa cells. To be noted: 48 h, read-out: HeLa IC50 after 48h.
Experiment [2] deals with bovine diarrhea virus. Particulars: bovine diarrhea virus as counterpart of hepatitis virus C; cited from earlier work.

Regarding `COP(=O)(OC)C1C(=O)c2cc3c(cc2C1c1ccccc1)OCO3` (stereo not drawn) [Compound 1a, 2-phosphoryl-3-phenyl substituted 1-indanone], the IC50 in experiment [1] was 90 µM.
On the same count and under the same terms, under `COc1cc(OC)c2c(c1)C(=O)CC2c1ccc(Br)cc1` (stereo not drawn) [Compound 3a, 3-(para-bromophenyl) substituted 1-indanone] stands 60 µM.
Consider `NC(=O)c1ncn([C@@H]2O[C@H](CO)[C@@H](O)[C@H]2O)n1` [ribavirin], for which the “selectivity index (SI)” value in experiment [2] is recorded as 11.64.

Usually IC50 stands for the concentration that gives 50% inhibition.
